Here are results for two compounds from US5853463A, “Marine antifouling agent” (Rohm and Haas Company, priority 1998, dated 1998).

For one assay, the system named is Dunaliella parva. The assay is described as follows: Activity against Dunaliella parva (minimum inhibitory concentration, twofold serial dilution). The note with it: 168 h, read-out: MIC (Minimum Inhibitory Concentration). The format is cell-based. As to the method:
Tests were conducted to determine the toxicity of the marine antifouling agents of the present invention to Dunaliella. Dunaliella are indicative of soft fouling organisms.
The effectiveness of the marine antifouling agents of the present invention and 3-iodopropargyl N-butyl carbamate (Comparative) against Dunaliella parva were determined by a twofold serial dilution procedure which determined the Minimum Inhibitory Concentration ("MIC") of test compound required to inhibit the growth of an algal inoculum. […]
Cultures were grown in 50 mL of medium contained in 250 mL baffle flasks with silicone sponge closures (Bellco Glass, Vineland, N.J., #2004-00004, 28 mm), on a rotary shaker under constant cool white illumination. […] The culture was standardized to an absorbance of 0.1 at 490 nm by addition of fresh medium. […]
Solutions of test compound at 40x the highest concentration to be tested were prepared in an appropriate solvent. […] At the end of that time, the plates were examined for growth, as evidenced by easily visible green color, using a mirrored microplate reader.
Results were recorded as the median of the three replicate results and are reported below as the minimum concentration to inhibit growth (MIC).

The test system of a further assay is Artemia. Briefly: Toxicity to Artemia (LC100 of nauplii). The format is in vivo, Artemia satlina. The note with it: 24 Hours, 25° C. As to the method: Tests were conducted to determine the toxicity of the marine antifouling agents of the present invention to Artemia. Artemia are indicative of hard fouling organisms.
Substitute ocean water was prepared following ASTM Method D 1141-90. The water was sterilized by filtration through a 0.22 micron cellulose acetate membrane filter. San Francisco Bay Brand® (San Francisco Bay Brand, Inc., Newark, Calif.) Artemia satlina cysts were purchased from a local aquarium supply store. The cysts were hatched in a 250 mL Erlenmeyer flask. The Artemia cysts (0.2 g) were weighed into a sterilized flask. One hundred mL of sterile ASTM sea water was added to the flask. The flask was placed on an orbital shaker set at approximately 150 rotations per minute and 28° C. After 24 hours, the contents of the flask were poured into a separatory funnel. The egg shells were separated from the Artemia nauplii (larvae), as the shells floated to the top. The nauplii were returned to the flask for another 24 hours shaking. The inoculum was prepared by pouring the nauplii into a crystallizing dish 48 hours after the cysts were originally placed on the shaker. […] The number of nauplii in 3 to 4 wells was counted under a microscope. […]
Plates were read under a low magnification microscope 24 and 48 hours after the nauplii were added to the plate. […]

Each structure is given as a SMILES string. Values after ≈ are worked out from the molar mass of the structure shown. Where two headings read alike, the source gives them in different places.

Turning to `CCCCNC(=O)OCC#CI` [Comparative, 3-iodopropargyl N-butyl carbamate], in the assay on Dunaliella parva (23° C., one week incubation, median of three replicates), the MIC came out at 6.2 µg/mL (≈ 22.1 µM). Besides, the “Artemia LC100 (highest dilution in which all of the nauplii are dead)” value in the assay with Artemia was 25 ppm.

`O=C(C(=O)c1ccccc1)c1ccccc1` [R=R^1 =H]: in the assay on Dunaliella parva, the MIC was 0.6 µg/mL (≈ 2.85 µM). Moreover, the “Artemia LC100 (highest dilution in which all of the nauplii are dead)” value in the assay on Artemia is 12.5 ppm.
